Reference: patent US9938281B2 (Merck Sharp & Dohme Corp., priority 2012, dated 2018)

Key:
[1] = target: T1, PI3K-delta (Homo sapiens, UniProt O00329); assay: HTRF PI3K biochemical assay, delta isoform; settings: form screened (neutral or TFA salt) given, read-out: PI3Kdelta IC50
T1 construct: purchased Upstate; Millipore 14-604

[2] = target: T2, PI3K-alpha (Homo sapiens, UniProt P42336); assay: HTRF PI3K biochemical assay, alpha isoform; settings: ratio PI3K-alpha IC50 value / PI3K-delta IC50 value
T2 construct: purchased Upstate; Millipore 14-602
T2 sequence (P42336 whole entry, canonical isoform): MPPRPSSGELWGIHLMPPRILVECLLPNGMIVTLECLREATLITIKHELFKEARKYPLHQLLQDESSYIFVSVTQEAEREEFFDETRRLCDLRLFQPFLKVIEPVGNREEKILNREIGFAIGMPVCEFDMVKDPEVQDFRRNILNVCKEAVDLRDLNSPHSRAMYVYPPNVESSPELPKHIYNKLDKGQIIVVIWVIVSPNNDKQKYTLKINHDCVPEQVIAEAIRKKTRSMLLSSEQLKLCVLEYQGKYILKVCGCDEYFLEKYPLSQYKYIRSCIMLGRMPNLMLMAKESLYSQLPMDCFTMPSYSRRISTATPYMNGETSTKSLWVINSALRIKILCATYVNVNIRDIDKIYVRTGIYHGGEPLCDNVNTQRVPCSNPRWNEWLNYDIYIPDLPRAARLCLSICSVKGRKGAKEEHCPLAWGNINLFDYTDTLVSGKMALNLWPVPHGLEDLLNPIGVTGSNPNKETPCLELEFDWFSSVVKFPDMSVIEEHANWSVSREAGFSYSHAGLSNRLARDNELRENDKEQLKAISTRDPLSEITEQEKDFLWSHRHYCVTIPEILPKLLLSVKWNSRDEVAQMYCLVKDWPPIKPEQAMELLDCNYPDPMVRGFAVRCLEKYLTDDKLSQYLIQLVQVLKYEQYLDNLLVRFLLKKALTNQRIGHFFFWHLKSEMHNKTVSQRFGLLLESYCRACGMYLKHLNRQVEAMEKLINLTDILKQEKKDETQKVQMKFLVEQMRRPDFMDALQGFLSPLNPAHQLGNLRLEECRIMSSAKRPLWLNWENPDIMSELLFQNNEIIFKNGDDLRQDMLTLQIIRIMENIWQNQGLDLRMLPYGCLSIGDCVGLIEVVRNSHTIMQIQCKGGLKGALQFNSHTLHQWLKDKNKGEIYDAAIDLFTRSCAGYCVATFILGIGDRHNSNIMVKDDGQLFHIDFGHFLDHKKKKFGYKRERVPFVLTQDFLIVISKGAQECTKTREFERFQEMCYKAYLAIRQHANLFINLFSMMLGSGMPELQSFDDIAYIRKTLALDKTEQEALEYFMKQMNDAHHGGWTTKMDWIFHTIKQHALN
T2 sequence (P27986 whole entry partner, canonical isoform): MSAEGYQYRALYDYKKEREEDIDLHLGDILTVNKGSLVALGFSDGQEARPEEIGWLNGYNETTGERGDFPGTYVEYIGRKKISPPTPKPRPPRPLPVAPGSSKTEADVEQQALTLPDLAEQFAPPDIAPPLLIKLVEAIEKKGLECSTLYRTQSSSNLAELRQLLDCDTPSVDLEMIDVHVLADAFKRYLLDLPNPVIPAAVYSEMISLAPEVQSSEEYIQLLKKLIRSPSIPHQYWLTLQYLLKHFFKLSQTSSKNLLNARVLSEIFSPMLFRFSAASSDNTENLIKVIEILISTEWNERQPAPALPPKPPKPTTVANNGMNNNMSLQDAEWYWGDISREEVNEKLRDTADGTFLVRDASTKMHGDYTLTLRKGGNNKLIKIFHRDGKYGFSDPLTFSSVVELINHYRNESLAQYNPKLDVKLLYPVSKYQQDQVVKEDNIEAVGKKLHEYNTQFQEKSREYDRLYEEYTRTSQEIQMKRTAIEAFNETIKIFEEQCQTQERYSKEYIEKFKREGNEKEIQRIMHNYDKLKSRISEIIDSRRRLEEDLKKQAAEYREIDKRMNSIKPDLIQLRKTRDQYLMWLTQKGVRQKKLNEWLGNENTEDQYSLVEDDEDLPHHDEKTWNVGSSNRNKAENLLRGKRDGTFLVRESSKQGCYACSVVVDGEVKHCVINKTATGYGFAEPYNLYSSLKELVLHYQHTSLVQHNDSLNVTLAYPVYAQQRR

T1 sequence (O00329 whole entry, canonical isoform): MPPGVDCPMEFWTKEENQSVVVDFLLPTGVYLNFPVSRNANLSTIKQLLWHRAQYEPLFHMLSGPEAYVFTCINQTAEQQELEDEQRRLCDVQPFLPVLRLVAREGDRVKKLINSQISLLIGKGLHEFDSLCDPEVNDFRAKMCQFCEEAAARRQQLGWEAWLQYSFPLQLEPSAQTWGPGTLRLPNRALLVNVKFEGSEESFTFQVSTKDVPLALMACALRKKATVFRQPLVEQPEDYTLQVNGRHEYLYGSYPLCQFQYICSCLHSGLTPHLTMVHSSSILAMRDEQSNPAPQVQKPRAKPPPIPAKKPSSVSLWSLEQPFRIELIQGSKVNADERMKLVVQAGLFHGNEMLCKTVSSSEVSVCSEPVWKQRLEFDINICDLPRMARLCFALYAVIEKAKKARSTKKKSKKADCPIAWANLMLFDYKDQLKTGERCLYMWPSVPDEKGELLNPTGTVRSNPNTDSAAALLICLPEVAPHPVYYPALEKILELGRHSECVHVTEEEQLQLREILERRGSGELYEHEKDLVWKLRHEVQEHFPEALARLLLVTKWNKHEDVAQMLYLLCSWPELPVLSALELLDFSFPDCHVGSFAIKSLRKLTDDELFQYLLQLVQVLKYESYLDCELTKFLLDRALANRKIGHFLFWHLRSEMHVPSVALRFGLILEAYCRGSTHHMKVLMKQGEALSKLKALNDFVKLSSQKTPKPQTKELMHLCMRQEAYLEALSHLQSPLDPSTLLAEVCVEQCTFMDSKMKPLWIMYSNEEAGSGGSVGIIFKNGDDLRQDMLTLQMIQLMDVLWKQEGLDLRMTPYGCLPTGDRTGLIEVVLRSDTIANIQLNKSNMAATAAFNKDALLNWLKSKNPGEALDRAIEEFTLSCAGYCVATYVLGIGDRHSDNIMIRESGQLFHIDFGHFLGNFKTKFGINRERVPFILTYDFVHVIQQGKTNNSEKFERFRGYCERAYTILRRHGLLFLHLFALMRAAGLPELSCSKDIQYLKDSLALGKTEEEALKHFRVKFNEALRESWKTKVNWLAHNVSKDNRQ
T1 sequence (P27986 whole entry partner, canonical isoform): as the sequence (P27986 whole entry partner, canonical isoform) above

IC50 [1] | Selectivity versus PI3Kalpha [2] | SMILES
12 nM | >10 | CCn1c(-c2cnc(C)nc2)nc2c(N[C@H]3C[C@H](C(=O)NC)N(C(=O)C4CC4)C3)ncnc21 [Compound 15-3, (4S)-1-(cyclopropylcarbonyl)-4-{[9-ethyl-8-(2-methylpyrimidin-5-yl)-9H-purin-6-yl]amino}-N-methyl-D-prolinamide]
30 nM | >10 | CCNC(=O)N1CCC[C@H](Nc2ncnc3c2nc(-c2cnn(CC)c2C)n3C)C1 [Compound 12-1, (3S)-N-ethyl-3-{[8-(1-ethyl-5-methyl-1H-pyrazol-4-yl)-9-methyl-9H-purin-6-yl]amino}piperidine-1-carboxamide]
1.7 nM | >10 | CCn1c(-c2cnc(C)nc2)nc2c(N[C@H]3CCN(C(=O)NC4CC4)C3)ncnc21 [Compound 12-6, (3S)-N-cyclopropyl-3-{[9-ethyl-8-(2-methylpyrimidin-5-yl)-9H-purin-6-yl]amino}pyrrolidine-1-carboxamide]
1.2 nM | >10 | CCn1c(-c2cnc(C)nc2)nc2c(N[C@H]3CCN(C(=O)N4CCCCC4)C3)ncnc21 [Compound 12-5, 9-ethyl-8-(2-methylpyrimidin-5-yl)-N-[(3S)-1-(piperidin-1-ylcarbonyl)pyrrolidin-3-yl]-9H-purin-6-amine]
8.2 nM | >10 | CCn1c(-c2cnc(C)nc2)nc2c(N[C@H]3CCN(C(=O)OCC(C)(C)C)C3)ncnc21 [Compound 13-4, 2,2-dimethylpropyl (3S)-3-{[9-ethyl-8-(2-methylpyrimidin-5-yl)-9H-purin-6-yl]amino}pyrrolidine-1-carboxylate]
60 nM | >10 | CCn1c(-c2cnc(C)nc2)nc2c(N[C@H]3C[C@@H](C(N)=O)N(C(=O)C4CC4)C3)ncnc21 [Compound 15-10, (4S)-1-(cyclopropylcarbonyl)-4-{[9-ethyl-8-(2-methylpyrimidin-5-yl)-9H-purin-6-yl]amino}-L-prolinamide]
4.1 nM | >10 | CCn1c(-c2cnc(C)nc2)nc2c(N[C@H]3CCN(C(=O)OCCOC)C3)ncnc21 [Compound 13-7, 2-methoxyethyl (3S)-3-{[9-ethyl-8-(2-methylpyrimidin-5-yl)-9H-purin-6-yl]amino}pyrrolidine-1-carboxylate]
24 nM | >10 | CCCN1CC(Nc2ncnc3c2nc(-c2cnc(C)nc2)n3CC)CC1=O (racemic) [Compound 14-4, 4(S and R)-{[9-ethyl-8-(2-methylpyrimidin-5-yl)-9H-purin-6-yl]amino}-1-propylpyrrolidin-2-one]

The next lines start with the compound.

SMILES | IC50 [1] | Selectivity versus PI3Kalpha [2]
CCn1c(-c2cnc(C)nc2)nc2c(N[C@H]3CCN(C(=O)[C@@H]4C[C@H]4C)C3)ncnc21 [Compound 2-92, 9-ethyl-N-[(3S)-1-{[(1R,2R)-2-methylcyclopropyl]carbonyl}pyrrolidin-3-yl]-8-(2-methylpyrimidin-5-yl)-9H-purin-6-amine] | < 1 nM | >10
CCC1CN(C(=O)C2CC2)CC1Nc1ncnc2c1nc(-c1cnc(C)nc1)n2CC (racemic) [Compound 3-19, N-[(3R,4S and 3S,4R)-1-(cyclopropylcarbonyl)-4-ethylpyrrolidin-3-yl]-9-ethyl-8-(2-methylpyrimidin-5-yl)-9H-purin-6-amine] | 3.8 nM | >10
CCn1c(-c2cnc(C)nc2)nc2c(N[C@H]3CCCN(C(=O)C4CC4)C3)ncnc21 [Compound 2-28, N-[(3S)-1-(cyclopropylcarbonyl)piperidin-3-yl]-9-ethyl-8-(2-methylpyrimn-5-yl)-9H-purin-6-amine] | 15 nM | >10
CCC(=O)N1CC[C@H](Nc2ncnc3c2nc(-c2cnn(CC)c2C)n3C)C1 [Compound 2-3, (S)-1-(3-((8-(1-ethyl-5-methyl-1H-pyrazol-4-yl)-9-methyl-9H-purin-6-yl)amino)pyrrolidin-1-yl)propan-1-one] | < 1 nM | >10
CCn1c(-c2cnc(C)nc2)nc2c(N[C@H]3CCN(C(=O)C4CCOCC4)C3)ncnc21 [Compound 2-18, (S)-(3-((9-ethyl-8-(2-methylpyrimidin-5-yl)-9H-purin-6-yl)amino)pyrrolidin-1-yl)(tetrahydro-2H-pyran-4-yl)methanone] | 2.4 nM | >10
CCn1ncc(-c2nc3c(NC4CN(C(=O)C5CCOCC5)C4)ncnc3n2C)c1C [Compound 2-48, 8-(1-ethyl-5-methyl-1H-pyrazol-4-yl)-9-methyl-N-[1-(tetrahydro-2H-pyran-4-ylcarbonyl)azetidin-3-yl]-9H-purin-6-amine] | 16 nM | >10
CCn1c(-c2cnc(C)nc2)nc2c(N[C@H]3CC[C@H](C(=O)N4CCC4)C3)ncnc21 [Compound 5-2, N-[(1S,3S)-3-(azetidin-1-ylcarbonyl)cyclopentyl]-9-ethyl-8-(2-methylpyrimidin-5-yl)-9H-purin-6-amine] | 35 nM | >10
CCn1c(-c2ccc(C(F)(F)F)nc2)nc2c(N[C@H]3CCN(C(=O)[C@H]4C[C@@H](OC)C4)C3)ncnc21 [Compound 2-105, 9-ethyl-N-{(3S)-1-[(cis-3-methoxycyclobutyl)carbonyl]pyrrolidin-3-yl}-8-[6-(trifluoromethyl)pyridin-3-yl]-9H-purin-6-amine] | < 1 nM | >10
CCn1c(C(F)F)nc2c(N[C@H]3CCN(C(=O)C4CC45CCCC5)C3)ncnc21 (single isomer, unassigned) [Compound 7-21, (S or R)-8-(difluoromethyl)-9-ethyl-N-[(3S)-1-(spiro[2.4]hept-1-ylcarbonyl)pyrrolidin-3-yl]-9H-purin-6-amine] | 2.4 nM | >10
CCn1c(-c2cnc(CO)nc2)nc2c(N[C@H]3CCN(C(=O)C4CC4)C3)ncnc21 [Compound 3-39, [5-(6-{[(3S)-1-(cyclopropylcarbonyl)pyrrolidin-3-yl]amino}-9-ethyl-9H-purin-8-yl)pyrimidin-2-yl]methanol] | 3.4 nM | >10
CCC(=O)N1CCC[C@H](Nc2ncnc3c2nc(-c2cnn(CC)c2C)n3C)C1 [Compound 2-46, 8-(1-ethyl-5-methyl-1H-pyrazol-4-yl)-9-methyl-N-[(3S)-1-propanoylpiperidin-3-yl]-9H-purin-6-amine] | 9.2 nM | >10
CCn1c(-c2cnc(C)nc2)nc2c(N[C@H]3CCN(C(=O)C4CC4(F)F)C3)ncnc21 (mixture of isomers) [Compound 2-55, N-{(3S)-1-[((R and S)-2,2-difluorocyclopropyl)carbonyl]pyrrolidin-3-yl}-9-ethyl-8-(2-methylpyrimidin-5-yl)-9H-purin-6-amine] | 1.5 nM | >10
CCn1ncc(-c2nc3c(N[C@@H]4CCCN(C(=O)OC(C)(C)C)C4)ncnc3n2C)c1C [Compound 1-11, (R)-tert-butyl 3-((8-(1-ethyl-5-methyl-1H-pyrazol-4-yl)-9-methyl-9H-purin-6-yl)amino)piperidine-1-carboxylate] | 250 nM | >10
CCn1c(-c2cnc(C)nc2)nc2c(N[C@H]3CCN(C(=O)C4CC(F)(F)C4)C3)ncnc21 [Compound 2-24, (S)-(3,3-difluorocyclobutyl)(3-((9-ethyl-8-(2-methylpyrimidin-5-yl)-9H-purin-6-yl)amino)pyrrolidin-1-yl)methanone] | 6.8 nM | >10
CCn1c(-c2cnc(C)nc2)nc2c(NC3CN(C(=O)C4CC4)CC3(F)F)ncnc21 (racemic) [Compound 2-25, N-[(3S and 3R)-1-(cyclopropylcarbonyl)-4,4-difluoropyrrolidin-3-yl]-9-ethyl-8-(2-methylpyrimidin-5-yl)-9H-purin-6-amine] | 3.7 nM | >10
CCn1c(-c2cnc(C)nc2)nc2c(N[C@H]3CCN(C(=O)C4(NC)CC4)C3)ncnc21 [Compound 2-82, 9-ethyl-N-[(3S)-1-{[1-(methylamino)cyclopropyl]car-bonyl}pyrrolidin-3-yl]-8-(2-methylpyrimidin-5-yl)-9H-purin-6-amine] | 21 nM | >10
CCn1c(-c2cnc(C)nc2)nc2c(N[C@H]3CCCN(C(=O)C(C)C)C3)ncnc21 [Compound 2-44, 9-ethyl-N-[(3S)-1-(2-methylpropanoyl)piperidin-3-yl]-8-(2-methylpyrimidin-5-yl)-9H-purin-6-amine] | 9 nM | >10
CCn1c(-c2cnc(C)nc2)nc2c(N[C@H]3CCCN(C(=O)OC(C)(C)C)C3)ncnc21 [Compound 1-16, tert-butyl (3S)-3-{[9-ethyl-8-(2-methylpyrimidin-5-yl)-9H-purin-6-yl]amino}piperidine-1-carboxylate] | 49 nM | >10
CCn1c(-c2cnc(C)nc2)nc2c(N[C@H]3CCN(c4cccc(OC)n4)C3)ncnc21 [Compound 4-7, 9-ethyl-N-[(3S)-1-(6-methoxypyridin-2-yl)pyrrolidin-3-yl]-8-(2-methylpyrimidin-5-yl)-9H-purin-6-amine] | 1.4 nM | >10
CCC(=O)N1CC[C@H](Nc2ncnc3c2nc(-c2cnc(C(C)(C)C)s2)n3CC)C1 [Compound 2-10, (S)-1-(3-((8-(2-(tert-butyl)thiazol-5-yl)-9-ethyl-9H-purin-6-yl)amino)pyrrolidin-1-yl)propan-1-one] | < 1 nM | >10
CCn1ncc(-c2nc3c(N(C)[C@H]4CCN(C(=O)OC(C)(C)C)C4)ncnc3n2C)c1C [Compound 1-3, (S)-tert-butyl 3-((8-(1-ethyl-5-methyl-1H-pyrazol-4-yl)-9-methyl-9H-purin-6-yl)(methyl)amino)pyrrolidine-1-carboxylate] | 98 nM | >10
